# Values joined by “and” are separate entries in the source; they are usually repeats but may differ in a detail not shown here. Equal values may be shown once.
# Tests used:
# A549 cells [1] = assay: Vacuole formation by phase contrast microscopy; assay type: cell-based; details: A549, 6 μM, 20 h, phase contrast microscopy (FIG. 3D)
# Procedure: (§1) (3A) A549 non-small cell lung cancer cells were treated with XJB-OMe, 3-hydroxy-β-lapachone (14), or XJB-lapachone (18) at indicated concentrations for 24 h. Cell viability was determined by a CellTiter-Blue assay. Data represents the mean±SEM. (3B) PEO1 ovarian cancer cells, MDA-MB-231 breast cancer cells, and 983B melanoma cells were treated with XJB-lapachone (18) at indicated concentrations for 24 h. Cell viability was determined by a CellTiter-Blue assay. Data represents the mean±SEM. (3C) Equal numbers of A549 and IMR90 lung fibroblast cells were treated with 10 μM XJB-lapachone (18) for 4 h. XJB-lapachone was then washed away and cells were incubated in drug free media for 3 days. Cell viability was determined by a CellTiter-Blue assay. (3D) A549 cells were treated with XJB-OMe, 3-hydroxy-β-lapachone (14), or XJB-lapachone (18) at 6 μM concentrations for 20 h. The formation of vacuoles was examined by phase contrast microscopy. Representative images are shown. (3E) A549 cells were treated as described above. Apoptotic and necrotic cell death were determined by Annexin V and PI staining. Representative images are shown.
# Microscopy: For vacuole imaging, A549 cells were plated in 12-well plate, treated with compounds and the phase contrast images were captured using a Nikon Eclipse TS100 inverted microscope. […]
# MDA-MB-231 rho0 cells = assay: Celltiter-blue cell viability in rho0 cells; assay type: cell-based; details: MDA-MB-231 rho0 cells (mtDNA depleted), increasing concentrations, 24 h (FIG. 8)
# Procedure: MDA-MB-231 parental and rho0 cells (established by long-term culture of parental MDA-MB-231 cells in the presence of 50 ng/ml ethidium bromide) were treated with increasing concentrations of XJB-lapachone for 24 h. Cell viability was determined by Celltiter-blue.
# A549 cells [2] = assay: Oxygen consumption rate, Seahorse extracellular flux analysis; assay type: cell-based; details: A549, 6 μM, 16 h, Seahorse (FIG. 4B)
# Procedure: (§2) (4A) A549 cells were treated with XJB-OMe, 3-hydroxy-β-lapachone (14), or XJB-lapachone (18) at 6 μM for 16 h. The generation of ROS was determined by staining cells with MitoSox and DCFHDA. The fluorescence intensity was measured by flow cytometry. Data represents the mean±S.D. of triplicates. (4B) A549 cells were treated as described in A, and the oxygen consumption rate was determined by a Seahorse extracellular flux analyzer. […] (4C) A549 cells were treated as described in A, and mitochondria morphology was examined by electron microscopy. Representative images are shown. (4D) A549 cells were treated as described above. The expression of the autophagy marker LC3 was examined by western blot. β-actin was used as a loading control. Representative images are shown.
# Extracellular flux (XF) analysis: Oxygen consumption rate (OCR) was measured using a Seahorse XF96 Extracellular Flux Analyzer (Seahorse Bioscience, North Billerica, Mass.), as previously described (Qian W, et al., Alterations in bioenergetics due to changes in mitochondrial DNA copy number. Methods 2010 51:452-457). Briefly, A549 cells were plated in a 6-well plate and treated with compounds for 16 h. After treatment, cells were trypsinized, counted, and plated at 40,000 cells per well in a XF96 microplate using Cell-Tak cell adhesive. OCR measurements were then performed using a XF96 analyzer.
# A549 lung cancer cells = assay: Cell growth/death assay (4 h exposure, wash-out, 3 days drug free); assay type: cell-based; details: A549, 10 μM for 4 h, washed, 3 days drug free media (FIG. 3C)
# Procedure: as §1, with “The formation of vacuoles was examined by phase contrast microscopy. Representative images are shown. (3E) A549 cells were treated as described above.” left out, “Representative images are shown.” left out
# (§3) Cell viability and apoptosis assays: Cell viability was determined using a CellTiter-Blue Cell Viability Assay (Promega, Madison, Wis.). The survival fractions were calculated after setting untreated control cells at 100%. An FITC Annexin V Apoptosis Detection Kit (BD PharMingen, San Diego, Calif.) was used to quantify apoptotic cells and necrotic cells, according to the manufacturer's instructions. […]
# A549 cells [3] = assay: Mitochondria morphology by transmission electron microscopy; assay type: cell-based; details: A549, 6 μM, 16 h, electron microscopy (FIG. 4C)
# Procedure: as §2
# Microscopy: For vacuole imaging, A549 cells were plated in 12-well plate, treated with compounds and the phase contrast images were captured using a Nikon Eclipse TS100 inverted microscope. For transmission electron microscopy analysis, A549 cells cultured in 6-well plate were fixed with 2.5% glutaraldehyde (Sigma-Aldrich) in PBS for 1 h at room temperature, and post-fixed for 1 h at 4° C. in 1% OsO4 with 1% K3Fe(CN)6. After dehydration and embedding, ultrathin (70 nm) sections were cut and mounted onto copper grids. […]
# [4] = test system: A549 non-small cell lung cancer cells; assay: Colony forming capacity (crystal violet) 10 days after drug treatment; assay type: cell-based
# Procedure: Drug efficacy was determined by colony forming capacity using crystal violet 10 days after drug treatment.
# A549 non-small cell lung cancer cells were treated with XJB-lapachone alone or combination with cisplatin or etoposide for 4 h at concentrations indicated in FIG. 10. Drug efficacy was determined by colony forming capacity 10 days after drug treatment.
# A549 cells were treated with XJB-lapachone for 4 h. XJB-lapachone was then washed away before IR exposure (gamma-irradiation with a Shepherd Mark I Model 68 [^137Cs] irradiator) at 0, 1, 2, 4, and 6 Gy (grays). The number of colonies was counted 10 days after IR exposure (FIG. 11).
# LC3 = assay: Western blot of autophagy marker LC3; assay type: cell-based; details: A549, western blot (FIG. 4D)
# Procedure: as §2
# Western blot analysis: Western blot was performed. Primary antibody LC3 was obtained from Novus (Littleton, Colo.) and β-actin was purchased from Sigma-Aldrich (St. Louis, Mo.).
# [5] = test system: A549 non-small cell lung cancer cells; assay: CellTiter-Blue cell viability assay, 24 h treatment; assay type: cell-based; details: various concentrations, CellTiter-Blue (FIG. 3A)
# Procedure: as §1
# (§4) Cell culture: A549 non-small cell lung cancer cells and MDA-MB-231 breast carcinoma cells were obtained from American Type Culture Collection (ATCC). Ovarian cancer cells PEO1 were kindly provided by Dr. Karyn J. Hansen (Magee-Womens Hospital of UPMC). 983B melanoma cells were kindly provided by Dr. Stergios J. Moschos (University of North Carolina). IMR90 normal lung fibroblast cells were kindly provided by Dr. Christopher Bakkenist (University of Pittsburgh Cancer Institute). Cells were cultured in either RPMI 1640 or DMEM media supplemented with 10% heat-inactivated fetal calf serum and 1% penicillin-streptomycin in 5% CO2 at 37° C.
# (§5) Cell viability and apoptosis assays: Cell viability was determined using a CellTiter-Blue Cell Viability Assay (Promega, Madison, Wis.). The survival fractions were calculated after setting untreated control cells at 100%. An FITC Annexin V Apoptosis Detection Kit (BD PharMingen, San Diego, Calif.) was used to quantify apoptotic cells and necrotic cells, according to the manufacturer's instructions.
# (§6) In order to investigate the cellular toxicity of 18 (XJB-lapachone), A549 nonsmall cell lung cancer cells were treated with various concentrations of XJB-lapachone for 24 h, and compared its effect with XJB-OMe (the mitochondrial targeting moiety) and unconjugated 3-hydroxy-β-lapachone (14). […] Furthermore, XJB-lapachone is also effective against other types of tumor cells, including PEO1 ovarian cancer cells, MDA-MB-231 breast cancer cells, and 983B melanoma cells (FIG. 3B). […] Tumor selectivity of β-lapachone, and whether the same is maintained after XJB conjugation, was examined. The cytotoxic effect of XJB-lapachone on A549 lung cancer and non-transformed human lung fibroblast cells IMR90 was determined by a cell growth/death assay.
# [6] = test system: PEO1 ovarian cancer cells; assay: as above; assay type: cell-based; details: indicated concentrations, 24 h (FIG. 3B)
# Procedure: as §1, §4, §5, §6
# 983B melanoma cells = assay: as above; assay type: cell-based; details: 983B cells, indicated concentrations, 24 h (FIG. 3B)
# Procedure: as §1, §4, §5, §6
# [7] = test system: MDA-MB-231 breast cancer cells; assay: as above; assay type: cell-based; details: MDA-MB-231 cells (NQO1 deficient), indicated concentrations, 24 h (FIG. 3B)
# Procedure: as §1, §4, §5, §6
# [8] = test system: MDA-MB-231 triple negative breast cancer cells (NQO1 deficient); assay: Mitochondrial ROS generation by MitoSox, flow cytometry; assay type: cell-based
# Procedure: (§7) Determination of ROS generation: To measure intracellular generation of ROS, cells were incubated with 5 μM DCF-DA (Sigma) for 20 min at 37° C. after drug exposure. To measure mitochondrial generated ROS, cells were incubated with 5 μM of MitoSox (Invitrogen) for 20 min at 37° C. After wash with PBS, cells were trypsinized and suspended in HBSS containing 1% BSA. The fluorescence intensity of DCF and MitoSox were analyzed using an Accuri C6 flow cytometer (BD Accuri Cytometers, Ann Arbor, Mich.).
# (§8) A549 non-small cell lung cancer cells (high NQO1) and MDA-MB-231 triple negative breast cancer cells (NQO1 deficient) were treated as indicated in FIG. 6. Mitochondrial ROS generation was determined by MitoSox followed by flow cytometry, essentially as described above.
# Mitochondrial ROS generation was determined by MitoSox followed by flow cytometry. Left-shift of peak indicates decrease of ROS and right-shift of peak indicates increase of ROS.
# DNA damage signaling = assay: Western blot of DNA damage signaling activation; assay type: cell-based; details: A549, western blot after treatment (FIG. 9)
# Procedure: Western blot was performed […] after treatment to examine the activation of DNA damage signaling. Antibodies used in the Western Blot were β-actin (AC-15) and ATM (MAT3-4G10/8) (from Sigma); Chk1 (2G1D5), phospho-Chk2 (Thr68) (C13C1), Chk2 (1C12) (from Cell Signaling Technology); phospho-Chk1 (Ser317) (from R&D systems); and phospho-ATM (S1981) (from Epitomics).
# A549 cells [9] = assay: ROS generation by DCF-DA and MitoSox, flow cytometry; assay type: cell-based; details: for ROS generation (DCF) / mitochondrial ROS generation (MitoSox): A549, 6 μM, 16 h, flow cytometry (FIG. 4A)
# Procedure: as §2, §7, §8
# [10] = test system: IMR90 lung fibroblast cells; assay: Cell growth/death assay (4 h exposure, wash-out, 3 days drug free); assay type: cell-based, human; details: IMR90, 10 μM for 4 h, washed, 3 days drug free media (FIG. 3C)
# Procedure: as §1, with “The formation of vacuoles was examined by phase contrast microscopy. Representative images are shown. (3E) A549 cells were treated as described above.” left out, “Representative images are shown.” left out
# as §3
# A549 cells [11] = assay: Annexin V and PI staining (apoptotic and necrotic cell death); assay type: cell-based; details: A549, 6 μM, 20 h, compared to unconjugated 3-hydroxy-β-lapachone (FIG. 3E)
# Procedure: as §1, with “The formation of vacuoles was examined by phase contrast microscopy. Representative images are shown. (3E) A549 cells were treated as described above.” left out, “Representative images are shown.” left out
# as §5
structure (smiles),measurement,setting,value
"CC1(C)OC2=C(CC1O)C(=O)C(=O)c1ccccc12 (stereo not drawn) [3-hydroxy-β-lapachone, reference compound]",vacuolization (formation of vacuoles),A549 cells [1],not detected
same,induction of cell death in rho0 cells (cell viability),MDA-MB-231 rho0 cells,not
same,inhibition of mitochondrial respiration (oxygen consumption) by oligomycin after treatment,A549 cells [2],oligomycin was efficient in inhibiting the mitochondrial respiration
"CC(C)C[C@@H](/C=C/[C@H](Cc1ccccc1)C(=O)N1CCC[C@H]1C(=O)N[C@H](C(=O)N[C@@H](CCCNC(=O)OCc1ccccc1)C(=O)NCCC(=O)OC1CC2=C(OC1(C)C)c1ccccc1C(=O)C2=O)C(C)C)NC(=O)OC(C)(C)C (stereo partly drawn) [XJB-lapachone, 2,2-Dimethyl-5,6-dioxo-3,4,5,6-tetrahydro-2H-benzo[h]chromen-3-yl 3-((S)-2-((S)-2-((S)-1-((2S,5S,E)-2-benzyl-5-((tert-butoxycarbonyl)amino)-7-methyloct-3-enoyl)pyrrolidine-2-carboxamido)-3-methylbutanamido)-5-(((benzyloxy)carbonyl)amino)pentanamido) propanoate]",vacuolization (formation of vacuoles),A549 cells [1],extensive vacuolization
same,cell viability after four-hour exposure,A549 lung cancer cells,significantly reduced the viability
same,induction of cell death in rho0 cells (cell viability),MDA-MB-231 rho0 cells,effective in inducing cell death in rho0 cells
same,mitochondria morphology,A549 cells [3],onion skin-like structures of mitochondria were observed
same,colony forming capacity in combination with cisplatin or etoposide,"[4]; A549, 4 h, alone or combination with cisplatin or etoposide, 10 days (FIG. 10)",enhances the effect of DNA-damaging anticancer agents
same,treatment efficacy by colony forming capacity,"[4]; A549, 4 h treatment, colonies 10 days after (FIG. 5)",Higher Treatment Efficacy as Compared to Unconjugated Beta-Lapachone
same,number of colonies in combination with ionizing radiation,"[4]; A549, 4 h treatment, washed, IR 0-6 Gy, colonies counted 10 days after (FIG. 11)",Synergistic Effect
same,increase in LC3-II immunoblot signal,LC3,increase in an LC3-II immunoblot signal was observed
same,cell viability / cytotoxic effect,[5]; listed as XJB-Lapachone,superior compared to unconjugated β-lapachone
same,cell viability / cytotoxic effect,[5]; listed as XJBLapachone,reduced cell viability in a dose dependent manner
same,cell viability,[6],effective
same,cell viability,983B melanoma cells,effective
same,cell viability,[7],effective
same,"mitochondrial ROS generation (MitoSox), dose and time dependence",[8]; MDA-MB-231 (NQO1 deficient) (FIG. 6),Induces Mitochondrial ROS Generation in a Dose and Time Dependent Manner
same,mitochondrial ROS levels at high concentration,"[8]; MDA-MB-231, 2 h, high concentration (FIG. 7)",Increases Mitochondrial ROS
same,mitochondrial ROS levels at low concentration,"[8]; MDA-MB-231, 2 h, low concentration (FIG. 7)",Reduces Mitochondrial ROS Levels
same,concentration at which ROS decreased,[8]; as described in the examples,≤ 1 µM
same,concentration that increases ROS production in the mitochondria,[8]; as described in the examples,> 1.0 µM and > 2.0 µM
same,activation of DNA damage signaling (DNA damage),DNA damage signaling,induces DNA damage
same,inhibition of mitochondrial respiration (oxygen consumption) by oligomycin after treatment,A549 cells [2],can no longer be inhibited by oligomycin
same,"mitochondrial ROS generation (MitoSox), dose and time dependence",A549 cells [9]; A549 (high NQO1) (FIG. 6),Induces Mitochondrial ROS Generation in a Dose and Time Dependent Manner
same,ROS generation (DCF),A549 cells [9],dramatic increase of ROS generation
same,mitochondrial ROS generation (MitoSox),A549 cells [9],dramatic increase of ROS generation
same,ROS generation (DCF),A549 cells [9]; listed as 18,stronger than unconjugated 3-hydroxy-β-lapachone
same,mitochondrial ROS generation (MitoSox),A549 cells [9]; listed as 18,stronger than unconjugated 3-hydroxy-β-lapachone
same,cell viability after four-hour exposure (toxic effect on non-transformed cells),[10],toxic effect was less prominent
same,annexin V positive cells (apoptosis),A549 cells [11],more annexin V positive cells were induced
